Ends that are not written are not given here.
Legend:
[1] = Pharmacokinetics after intra-tracheal dry powder delivery to anaesthetised pigs; type: in vivo; conditions: pig, inhaled or intranasal, pramlintide/insulin aspart powder delivered intra-tracheally, plasma
Protocol: For pulmonary delivery the PennCentury™ DP-4 dry powder insufflator (Penn-Century Inc) modified for pigs was used in combination with the PennCentury™ adjustable air pump, model AP-1 (Penn-Century Inc). The powder is weighed into the sample chamber of the device and manually emitted from the device by using the AP-1 adjustable pump.
The pigs were fasted for approximately 18 h before the experiment. Anaesthesia was induced by injecting Domitor IV (1 mg/mL, 0.4 mL/pig), followed by slow IV infusion of Propofol (10 mg/ml) until the sufficient depth of anaesthesia was obtained, approximately 10-15 mL/pig in total. Atropin (1 mg/ml, 0.5 mL/pig) was injected i.m. to stabilize cardiac parameters and to decrease bronchial secretions. After anaesthesia (and) the pigs were intubated with an endotracheal tube size 8.0 mm. Via an L-piece and the endotraceal tube the pigs were connected to a respirator, with respiration frequency set to 10/min and tidal volume to 300 mL/breath to mimic deep inhalations in humans. […]
Insulin aspart was analyzed using an in-house LOCI sandwich immunoassay with two different antibodies. […] Pramlintide was analyzed using a commercially available human amylin ELISA kit modified for porcine samples (Linco Research, cat. no. EZHA-52K). […]

[2] = cited from earlier work
[3] = when compared to human amylin; cited from earlier work
[4] = treated test animals; e.g. provoking marked hyperlactemia followed by hyperglycemia; cited from earlier work
[5] = Enhancement of peptide absorption in the lung by absorption enhancers (animal model); type: in vivo; conditions: tested as absorption enhancer, pulmonary route

Compound | amylin activity in vivo [4] | enhancement of peptide absorption in the lung [5] | further results
CC[C@H](C)[C@H](NC(=O)[C@@H]1CCCN1C(=O)CNC(=O)[C@H](Cc1ccccc1)NC(=O)[C@H](CC(N)=O)NC(=O)[C@H](CC(N)=O)NC(=O)[C@H](CO)NC(=O)[C@H](CO)NC(=O)[C@H](Cc1c[nH]cn1)NC(=O)[C@@H](NC(=O)[C@H](CC(C)C)NC(=O)[C@H](Cc1ccccc1)NC(=O)[C@H](CC(N)=O)NC(=O)[C@H](C)NC(=O)[C@H](CC(C)C)NC(=O)[C@H](CCCNC(=N)N)NC(=O)[C@H](CCC(N)=O)NC(=O)[C@@H](NC(=O)[C@H](C)NC(=O)[C@@H]1CSSC[C@H](NC(=O)[C@@H](N)CCCCN)C(=O)N[C@@H](CC(N)=O)C(=O)N[C@@H]([C@@H](C)O)C(=O)N[C@@H](C)C(=O)N[C@@H]([C@@H](C)O)C(=O)N1)[C@@H](C)O)C(C)C)C(=O)N[C@@H](CC(C)C)C(=O)N1CCC[C@H]1C(=O)N1CCC[C@H]1C(=O)N[C@H](C(=O)N[C@@H](CC(N)=O)C(=O)N[C@H](C(=O)NCC(=O)N[C@@H](CO)C(=O)N[C@@H](CC(N)=O)C(=O)N[C@H](C(=O)N[C@@H](Cc1ccc(O)cc1)C(N)=O)[C@@H](C)O)C(C)C)[C@@H](C)O [Symlin, ^25,28,29Pro-h-amylin] | – | – | Tmax [1]: 40 min; time to reach Cmax ([2]; after a subcutaneous injection): approximately 20 minutes; plasma t½ ([2]; subcutaneous injection): approximately 20 minutes; solubility and stability characteristics [3]: more desirable solubility and stability characteristics
^18Arg^25, 28Pro-h-amylin | show amylin activity in vivo | – | solubility and stability characteristics [3]: more desirable solubility and stability characteristics
des-^1Lys^18Arg^25, 28Pro-h-amylin | show amylin activity in vivo | – | –
^28Pro-h-amylin (KCNTATCATQRLANFLVHSSNNFGAILPSTNVGSNTY; ends and bridges not checked; cysteine pairing not given here; UniProt P10997 34-70, looked up, variant S28P) | show amylin activity in vivo | – | –
Dimethyl-β-cyclodextrin | – | absorption enhancing effect | –
C[C@H](CCC(=O)NCC(=O)O)[C@H]1CC[C@H]2[C@@H]3[C@H](O)C[C@@H]4C[C@H](O)CC[C@]4(C)[C@H]3C[C@H](O)[C@]12C [glycocholate] | – | effectively enhance peptide absorption in the lung | –
CC(=O)OC1CC2(C)C(CC(O)C3C4(C)CCC(O)C(C)C4CCC32C)C1=C(CCCC(C)C)C(=O)NCCS(=O)(=O)O (stereo not drawn) [taurodihydrofusidate] | – | effectively enhance peptide absorption in the lung | –
des-^1Lys-h-amylin (CNTATCATQRLANFLVHSSNNFGAILSSTNVGSNTY; ends and bridges not checked; cysteine pairing not given here; UniProt P10997 35-70, looked up, fragment) | show amylin activity in vivo | – | –
C[C@H](CCC(=O)O)[C@H]1CC[C@H]2[C@@H]3[C@@H](O)C[C@@H]4C[C@H](O)CC[C@]4(C)[C@H]3CC[C@]12C [ursodeoxycholate] | – | effectively enhance peptide absorption in the lung | –
lysophospatidylcholine | – | effective enhancer | –
^25Pro^26Val^28, 29Pro-h-amylin | – | – | solubility and stability characteristics [3]: more desirable solubility and stability characteristics

From patent EP2060268A1, “Pharmaceutical compositions for pulmonary or nasal delivery of peptides” (NOVO NORDISK A/S, priority 2007, dated 2009)
